Data published in BindingDB's records for doi:10.1016/j.bmc.2010.04.086 (Hoshi University, 2010).

Target: T1, Polyphenol oxidase 2 (Agaricus bisporus, UniProt O42713)
T1 sequence (O42713 whole entry): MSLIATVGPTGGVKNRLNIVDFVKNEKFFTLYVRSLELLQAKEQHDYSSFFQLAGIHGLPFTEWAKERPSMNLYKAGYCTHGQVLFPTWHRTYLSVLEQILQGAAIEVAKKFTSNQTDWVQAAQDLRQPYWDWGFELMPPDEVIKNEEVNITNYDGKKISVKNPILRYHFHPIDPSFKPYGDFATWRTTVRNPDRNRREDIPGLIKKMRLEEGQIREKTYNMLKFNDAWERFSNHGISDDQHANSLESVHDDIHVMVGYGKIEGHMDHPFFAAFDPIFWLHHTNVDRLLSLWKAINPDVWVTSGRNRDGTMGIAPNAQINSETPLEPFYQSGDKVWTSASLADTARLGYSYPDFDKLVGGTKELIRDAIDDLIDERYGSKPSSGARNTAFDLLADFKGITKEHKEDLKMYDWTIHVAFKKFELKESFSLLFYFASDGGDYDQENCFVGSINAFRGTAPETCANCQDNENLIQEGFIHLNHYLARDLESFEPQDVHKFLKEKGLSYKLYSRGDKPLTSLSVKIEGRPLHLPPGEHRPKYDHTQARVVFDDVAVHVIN
Test: Inhibition of mushroom tyrosinase

Compound | IC50 [µM]
COC(=O)C1C2=Nc3c(O)cccc3[C@]23CC[N+]2([O-])C[C@H](C(C)=O)[C@H]1C[C@H]32 (stereo not given in full) [Alpneumine A] | > 100
COC(=O)C1C2=Nc3c(O)cccc3[C@]23CCN2C[C@H](C(C)=O)[C@H]1C[C@@H]23 (stereo not given in full) [Alpneumine B] | > 100
COC(=O)C1C2=Nc3ccccc3[C@]23CCN2C[C@@H](C(C)=O)[C@H]1C[C@@H]23 (stereo not given in full) [Alpneumine E] | > 100
COC(=O)C1C2=Nc3ccccc3[C@]23CC[N+]2([O-])C[C@H](C(C)=O)[C@H]1C[C@H]32 (stereo not given in full) [Alpneumine C] | > 100
COC(=O)C1C2=Nc3c(O)cccc3[C@]23CCN2C[C@@H](C(C)=O)[C@H]1C[C@@H]23 (stereo not given in full) [Alpneumine D] | > 100
